# Experimental data from patent publication US12570642B2, “GLP-IR modulating compounds” (Gilead Sciences, Inc., priority 2021, dated 2026).
# Molecular target: GLP-1R (Homo sapiens, UniProt P43220)
# Assay: GLP-1R Activation - cAMP Assay
# Format: cell-based
# Conditions: cAMP increase in CHO cells stably expressing GLP-1R; each compound run on one of the two cAMP assays (Assay 1 or Assay 2, not specified)
# Procedure, shortened: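 CHO cells stably expressing GLP-1R, plated at 1,000 cells/well overnight, then equilibrated 1 h in HBSS with 20 mM Hepes and 0.1% BSA. Agonist added as 10-point dose response for 30 min at 37 °C. cAMP measured by HTRF (Cisbio Gs Dynamic kit); EC50 from sigmoidal fit.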
# Chain of GLP-1R (P43220 24-463): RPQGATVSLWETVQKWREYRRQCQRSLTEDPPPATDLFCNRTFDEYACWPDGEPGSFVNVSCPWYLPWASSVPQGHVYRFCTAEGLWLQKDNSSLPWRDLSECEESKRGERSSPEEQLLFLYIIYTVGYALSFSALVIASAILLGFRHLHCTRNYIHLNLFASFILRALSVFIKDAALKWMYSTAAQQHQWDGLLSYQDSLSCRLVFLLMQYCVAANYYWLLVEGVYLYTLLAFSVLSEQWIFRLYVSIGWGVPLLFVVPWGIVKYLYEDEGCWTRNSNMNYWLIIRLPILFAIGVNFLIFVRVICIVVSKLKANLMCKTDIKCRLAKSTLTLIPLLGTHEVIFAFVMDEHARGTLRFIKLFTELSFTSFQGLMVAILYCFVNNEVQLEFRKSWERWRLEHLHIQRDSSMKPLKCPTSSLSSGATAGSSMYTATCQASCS
row,SMILES,EC50
1,"N#Cc1ccc(COc2cccc(-c3cc(F)c(Cc4nc5ccc(C(=O)O)cc5n4[C@@H]4COC[C@@H]4OCC(F)F)cc3F)n2)c(F)c1 [Example 540, 2-(4-(6-((4-cyano-2-fluorobenzyl)oxy)pyridin-2-yl)-2,5-difluorobenzyl)-1-((3R,4R)-4-(2,2-difluoroethoxy)tetrahydrofuran-3-yl)-1H-benzo[d]imidazole-6-carboxylic acid]",0.052 nM
2,"N#Cc1ccc(COc2cccc(-c3cc(F)c(Cc4nc5ccc(C(=O)O)cc5n4[C@H]4COC[C@H]4OCC(F)F)cc3F)n2)c(F)c1 [Example 541, 2-(4-(6-((4-cyano-2-fluorobenzyl)oxy)pyridin-2-yl)-2,5-difluorobenzyl)-1-((3S,4S)-4-(2,2-difluoroethoxy)tetrahydrofuran-3-yl)-1H-benzo[d]imidazole-6-carboxylic acid]",0.434 nM
3,"COC[C@H]1COC[C@H]1n1c(Cc2cc(F)c(-c3cccc(OCc4ccc(Cl)cc4F)n3)cc2F)nc2ccc(C(=O)O)cc21 [Example 542, 2-(4-(6-((4-chloro-2-fluorobenzyl)oxy)pyridin-2-yl)-2,5-difluorobenzyl)-1-((3S,4S)-4-(methoxymethyl)tetrahydrofuran-3-yl)-1H-benzo[d]imidazole-6-carboxylic acid]",0.033 nM
4,"COC[C@H]1COC[C@H]1n1c(Cc2cc(F)c(-c3ccc(F)c(OCc4ccc(Cl)cc4F)n3)cc2F)nc2ccc(C(=O)O)cc21 [Example 543, 2-(4-(6-((4-chloro-2-fluorobenzyl)oxy)-5-fluoropyridin-2-yl)-2,5-difluorobenzyl)-1-((3S,4S)-4-(methoxymethyl)tetrahydrofuran-3-yl)-1H-benzo[d]imidazole-6-carboxylic acid]",0.038 nM
5,"COC[C@H]1COC[C@H]1n1c(Cc2cc(F)c(-c3cccc(OCc4ccc(Cl)cc4)n3)cc2F)nc2ccc(C(=O)O)cc21 [Example 544, 2-(4-(6-((4-chlorobenzyl)oxy)pyridin-2-yl)-2,5-difluorobenzyl)-1-((3S,4S)-4-(methoxymethyl)tetrahydrofuran-3-yl)-1H-benzo[d]imidazole-6-carboxylic acid]",0.048 nM
6,"COC[C@H]1COC[C@H]1n1c(Cc2cc(F)c(-c3ccc(F)c(OCc4ccc(Cl)cc4)n3)cc2F)nc2ccc(C(=O)O)cc21 [Example 545, 2-(4-(6-((4-chlorobenzyl)oxy)-5-fluoropyridin-2-yl)-2,5-difluorobenzyl)-1-((3S,4S)-4-(methoxymethyl)tetrahydrofuran-3-yl)-1H-benzo[d]imidazole-6-carboxylic acid]",0.044 nM
7,"Cn1cc(-c2ccc(COc3cccc(-c4cc(F)c(Cc5nc6ccc(C(=O)O)cc6n5[C@@H]5COCC5(C)C)cc4F)n3)cn2)nn1 [Example 550, (S)-2-(2,5-difluoro-4-(6-((6-(1-methyl-1H-1,2,3-triazol-4-yl)pyridin-3-yl)methoxy)pyridin-2-yl)benzyl)-1-(4,4-dimethyltetrahydrofuran-3-yl)-1H-benzo[d]imidazole-6-carboxylic acid]",0.066 nM
8,"CC1(C)COC[C@H]1n1c(Cc2cc(F)c(-c3cccc(OCc4ccc(-c5cnn(C(F)F)c5)cc4)n3)cc2F)nc2ccc(C(=O)O)cc21 [Example 551, (S)-2-(4-(6-((4-(1-(difluoromethyl)-1H-pyrazol-4-yl)benzyl)oxy)pyridin-2-yl)-2,5-difluorobenzyl)-1-(4,4-dimethyltetrahydrofuran-3-yl)-1H-benzo[d]imidazole-6-carboxylic acid]",0.11 nM
9,"CC1(C)COC[C@H]1n1c(Cc2cc(F)c(-c3cccc(OCc4cnc(-c5cnn(C(F)F)c5)cc4Cl)n3)cc2F)nc2ccc(C(=O)O)cc21 [Example 552, (S)-2-(4-(6-((4-chloro-6-(1-(difluoromethyl)-1H-pyrazol-4-yl)pyridin-3-yl)methoxy)pyridin-2-yl)-2,5-difluorobenzyl)-1-(4,4-dimethyltetrahydrofuran-3-yl)-1H-benzo[d]imidazole-6-carboxylic acid]",0.99 nM
